Experiments:
EP2 [1] = molecular target: T1, EP2 (Homo sapiens, UniProt P43116); assay: EP2 cAMP; type: cell-based
Description: (§1) U.S. patent application Ser. No. 11/553,143, filed on Oct. 26, 2006, incorporated by reference herein, describes the methods used to obtain the in vitro data in the table below.

EP2 [2] = molecular target: T1, EP2; assay: EP2 binding (Ki)
Description: as §1

hDP = molecular target: T2, hDP (Homo sapiens, UniProt Q13258); assay: Other Receptors, hDP; type: cell-based
T2 sequence (Q13258 1-359): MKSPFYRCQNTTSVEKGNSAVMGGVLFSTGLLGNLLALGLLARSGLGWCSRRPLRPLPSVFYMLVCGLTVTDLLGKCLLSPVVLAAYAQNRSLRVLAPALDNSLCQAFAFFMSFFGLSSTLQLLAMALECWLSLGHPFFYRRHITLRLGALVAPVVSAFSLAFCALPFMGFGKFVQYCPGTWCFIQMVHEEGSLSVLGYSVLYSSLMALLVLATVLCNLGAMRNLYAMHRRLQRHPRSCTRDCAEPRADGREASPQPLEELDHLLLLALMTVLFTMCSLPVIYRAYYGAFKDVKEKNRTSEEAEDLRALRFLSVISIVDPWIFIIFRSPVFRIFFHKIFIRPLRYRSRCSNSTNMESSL
Description: as §1

EP4 = EP4 (Homo sapiens, UniProt P35408); assay: EP4 binding (KI)
Description: as §1

hEP3A = molecular target: T3, hEP3A (Homo sapiens, UniProt P43115); assay: Other Receptors, hEP3A; type: cell-based
T3 sequence (P43115 1-390): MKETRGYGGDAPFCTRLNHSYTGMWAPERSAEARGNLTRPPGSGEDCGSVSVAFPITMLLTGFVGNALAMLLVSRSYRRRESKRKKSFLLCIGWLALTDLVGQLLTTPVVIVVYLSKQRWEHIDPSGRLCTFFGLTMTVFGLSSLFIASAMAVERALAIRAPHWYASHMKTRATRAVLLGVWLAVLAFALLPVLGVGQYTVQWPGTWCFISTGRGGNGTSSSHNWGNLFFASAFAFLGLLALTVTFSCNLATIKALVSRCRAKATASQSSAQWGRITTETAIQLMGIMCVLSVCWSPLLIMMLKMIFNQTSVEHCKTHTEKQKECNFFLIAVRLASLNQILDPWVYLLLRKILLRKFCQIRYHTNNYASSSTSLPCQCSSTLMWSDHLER
Description: as §1

EP2 [3] = molecular target: T1, EP2; assay: EP2 flipr; type: cell-based
Description: as §1

normotensive dogs = assay: Ocular surface hyperemia in normotensive dogs; type: in vivo; conditions: 0.003%, once daily for 5 days, maximum at 26 h
Method: U.S. Pat. No. 7,091,231 describes the methods used to carry out the tests reported below.
Isopropyl 5-(3-(3-(4-(1-hydroxyhexyl)phenyl)-2,5-dioxoimidazolidin-4-yl)propyl)thiophene-2-carboxylate (31) was tested in normotensive dogs at 0.003%, dosing once daily for 5 days. The maximum intraocular pressure (IOP) decrease from baseline was 7.7 mmHg (45%) at 102 h; the maximum ocular surface hyperemia (OSH) score was 2.5 at 26 h.

T1 sequence (P43116 whole entry): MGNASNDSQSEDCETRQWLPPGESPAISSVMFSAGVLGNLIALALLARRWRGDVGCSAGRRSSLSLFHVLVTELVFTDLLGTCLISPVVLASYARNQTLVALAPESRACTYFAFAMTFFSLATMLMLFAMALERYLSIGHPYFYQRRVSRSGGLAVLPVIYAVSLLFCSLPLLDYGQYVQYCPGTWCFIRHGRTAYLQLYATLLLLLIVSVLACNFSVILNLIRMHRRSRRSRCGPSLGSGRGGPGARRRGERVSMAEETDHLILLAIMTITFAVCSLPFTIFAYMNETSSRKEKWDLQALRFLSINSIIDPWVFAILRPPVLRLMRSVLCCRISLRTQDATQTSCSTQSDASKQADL
EP4, sequence (P35408 whole entry): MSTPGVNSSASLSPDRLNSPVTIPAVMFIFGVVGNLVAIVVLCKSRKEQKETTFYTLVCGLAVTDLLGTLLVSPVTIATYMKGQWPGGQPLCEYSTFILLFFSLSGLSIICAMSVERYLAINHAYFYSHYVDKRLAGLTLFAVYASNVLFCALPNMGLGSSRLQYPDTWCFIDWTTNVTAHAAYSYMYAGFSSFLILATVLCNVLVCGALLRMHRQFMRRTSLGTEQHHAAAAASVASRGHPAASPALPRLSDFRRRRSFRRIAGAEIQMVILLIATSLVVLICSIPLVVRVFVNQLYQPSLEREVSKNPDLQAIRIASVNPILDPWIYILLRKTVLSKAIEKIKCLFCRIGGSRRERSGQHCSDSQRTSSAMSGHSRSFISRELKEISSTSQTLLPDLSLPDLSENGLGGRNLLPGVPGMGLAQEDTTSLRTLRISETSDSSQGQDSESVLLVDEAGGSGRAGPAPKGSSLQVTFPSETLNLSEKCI

Row | EC50 (EP2 [1]) | Ki (EP2 [2]) | EC50 (hDP) | Ki (EP4) | EC50 (hEP3A) | EC50 (EP2 [3]) | maximum ocular surface hyperemia (OSH) score (normotensive dogs) | SMILES
1 | 0.2 nM |  |  |  |  |  |  | CCCCCC(=O)c1ccc(N2C(=O)NC(=O)C2CCCc2ccc(C(=O)O)s2)cc1 (centres unmarked)
2 | 0.1 nM | 5 nM | 17400 nM | > 10000 nM | 10 nM | 3.5 nM |  | CCCCCC(O)c1ccc(N2C(=O)NC(=O)C2CCCc2ccc(C(=O)O)s2)cc1 (centres unmarked)
3 |  |  |  |  |  |  | 2.5 | CCCCCC(O)c1ccc(N2C(=O)NC(=O)C2CCCc2ccc(C(=O)OC(C)C)s2)cc1 (centres unmarked) [Compound 31, Isopropyl 5-(3-(3-(4-(1-hydroxyhexyl)phenyl)-2,5-dioxoimidazolidin-4-yl)propyl)thiophene-2-carboxylate]

— patent publication US7795287B2, “Therapeutic substituted hydantoins and related compounds” (Allergan, Inc., priority 2006, dated 2010)
